Measured values as given in ChEMBL document CHEMBL4507281, “Data for DCP probe BI-4394” (2021).

Legend:
[1] = molecular target: Serine/threonine-protein kinase B-raf (Homo sapiens) (UniProt P15056); conditions: Compound concentration 100.0 nM
[2] = molecular target: Atypical kinase COQ8B, mitochondrial (Homo sapiens) (UniProt Q96D53); conditions: Compound concentration 100.0 nM
[3] = molecular target: LIM domain kinase 2 (Homo sapiens) (UniProt P53671); conditions: Compound concentration 100.0 nM
[4] = molecular target: Serine/threonine-protein kinase 36 (Homo sapiens) (UniProt Q9NRP7); conditions: Compound concentration 100.0 nM
[5] = molecular target: Dual specificity mitogen-activated protein kinase kinase 1 (Homo sapiens) (UniProt Q02750); conditions: Compound concentration 100.0 nM
[6] = molecular target: Tyrosine-protein kinase Lck (Homo sapiens) (UniProt P06239); conditions: Compound concentration 100.0 nM
[7] = molecular target: Tyrosine-protein kinase receptor Tie-1 (Homo sapiens) (UniProt P35590); conditions: Compound concentration 100.0 nM
[8] = molecular target: Serine/threonine-protein kinase haspin (Homo sapiens) (UniProt Q8TF76); conditions: Compound concentration 100.0 nM
[9] = molecular target: Serine/threonine-protein kinase mTOR (Homo sapiens) (UniProt P42345); conditions: Compound concentration 100.0 nM
[10] = molecular target: Fibroblast growth factor receptor 2 (Homo sapiens) (UniProt P21802); conditions: Compound concentration 100.0 nM
[11] = molecular target: SRSF protein kinase 2 (Homo sapiens) (UniProt P78362); conditions: Compound concentration 100.0 nM
[12] = molecular target: Mitogen-activated protein kinase kinase kinase 9 (Homo sapiens) (UniProt P80192); conditions: Compound concentration 100.0 nM
[13] = molecular target: Serine/threonine-protein kinase PAK 5 (Homo sapiens) (UniProt Q9P286); conditions: Compound concentration 100.0 nM
[14] = molecular target: Serine/threonine-protein kinase PAK 3 (Homo sapiens) (UniProt O75914); conditions: Compound concentration 100.0 nM
[15] = molecular target: Serine/threonine-protein kinase LATS2 (Homo sapiens) (UniProt Q9NRM7); conditions: Compound concentration 100.0 nM
[16] = tested on: Epidermal growth factor receptor (Homo sapiens), P00533 [L858R,T790M]; conditions: Compound concentration 100.0 nM
[17] = molecular target: RAC-gamma serine/threonine-protein kinase (Homo sapiens) (UniProt Q9Y243); conditions: Compound concentration 100.0 nM
[18] = tested on: Tyrosine-protein kinase ABL1 (Homo sapiens), P00519 [F317I]; conditions: Compound concentration 100.0 nM
[19] = tested on: ALK tyrosine kinase receptor (Homo sapiens), Q9UM73 [L1196M]; conditions: Compound concentration 100.0 nM
[20] = tested on: Epidermal growth factor receptor (Homo sapiens), P00533 [L858R]; conditions: Compound concentration 100.0 nM
[21] = molecular target: Calcium/calmodulin-dependent protein kinase type 1B (Homo sapiens) (UniProt Q6P2M8); conditions: Compound concentration 100.0 nM
[22] = molecular target: 5-hydroxytryptamine receptor 1E (Homo sapiens) (UniProt P28566); conditions: Compound concentration 10.0 uM
[23] = molecular target: Cyclin-dependent kinase 11A (Homo sapiens) (UniProt Q9UQ88); conditions: Compound concentration 100.0 nM
[24] = molecular target: Serine/threonine-protein kinase Nek10 (Homo sapiens) (UniProt Q6ZWH5); conditions: Compound concentration 100.0 nM
[25] = molecular target: Phosphatidylinositol 4-phosphate 3-kinase C2 domain-containing subunit beta (Homo sapiens) (UniProt O00750); conditions: Compound concentration 100.0 nM
[26] = molecular target: Bone morphogenetic protein receptor type-1B (Homo sapiens) (UniProt O00238); conditions: Compound concentration 100.0 nM
[27] = molecular target: Dual specificity mitogen-activated protein kinase kinase 5 (Homo sapiens) (UniProt Q13163); conditions: Compound concentration 100.0 nM
[28] = molecular target: Interferon-induced, double-stranded RNA-activated protein kinase (Homo sapiens) (UniProt P19525); conditions: Compound concentration 100.0 nM
[29] = molecular target: Alpha-2B adrenergic receptor (Homo sapiens) (UniProt P18089); conditions: Compound concentration 10.0 uM
[30] = molecular target: Serine/threonine-protein kinase STK11 (Homo sapiens) (UniProt Q15831); conditions: Compound concentration 100.0 nM
[31] = molecular target: Serine/threonine-protein kinase D1 (Homo sapiens) (UniProt Q15139); conditions: Compound concentration 100.0 nM
[32] = molecular target: 5-hydroxytryptamine receptor 3A (Homo sapiens) (UniProt P46098); conditions: Compound concentration 10.0 uM
[33] = molecular target: Serine/threonine-protein kinase BRSK1 (Homo sapiens) (UniProt Q8TDC3); conditions: Compound concentration 100.0 nM
[34] = molecular target: Ribosomal protein S6 kinase alpha-6 (Homo sapiens) (UniProt Q9UK32); conditions: Compound concentration 100.0 nM
[35] = molecular target: Receptor-interacting serine/threonine-protein kinase 2 (Homo sapiens) (UniProt O43353); conditions: Compound concentration 100.0 nM
[36] = molecular target: Vascular endothelial growth factor receptor 3 (Homo sapiens) (UniProt P35916); conditions: Compound concentration 100.0 nM
[37] = molecular target: Tyrosine-protein kinase receptor TYRO3 (Homo sapiens) (UniProt Q06418); conditions: Compound concentration 100.0 nM
D(1B) dopamine receptor = D(1B) dopamine receptor (Homo sapiens, UniProt P21918); conditions: Compound concentration 10.0 uM
[38] = molecular target: Phosphatidylinositol 3-kinase C2 domain-containing subunit gamma (Homo sapiens) (UniProt O75747); conditions: Compound concentration 100.0 nM
[39] = molecular target: Phosphatidylinositol 5-phosphate 4-kinase type-2 gamma (Homo sapiens) (UniProt Q8TBX8); conditions: Compound concentration 100.0 nM
[40] = molecular target: Insulin receptor-related protein (Homo sapiens) (UniProt P14616); conditions: Compound concentration 100.0 nM
[41] = molecular target: Calcium/calmodulin-dependent protein kinase kinase 2 (Homo sapiens) (UniProt Q96RR4); conditions: Compound concentration 100.0 nM
[42] = molecular target: Serine/threonine-protein kinase pim-3 (Homo sapiens) (UniProt Q86V86); conditions: Compound concentration 100.0 nM
[43] = molecular target: Cyclin-dependent kinase 7 (Homo sapiens) (UniProt P50613); conditions: Compound concentration 100.0 nM
[44] = molecular target: Receptor tyrosine-protein kinase erbB-2 (Homo sapiens) (UniProt P04626); conditions: Compound concentration 100.0 nM

Sequence of Atypical kinase COQ8B, mitochondrial (Homo sapiens) (Q96D53 whole entry, the tested form may be a part): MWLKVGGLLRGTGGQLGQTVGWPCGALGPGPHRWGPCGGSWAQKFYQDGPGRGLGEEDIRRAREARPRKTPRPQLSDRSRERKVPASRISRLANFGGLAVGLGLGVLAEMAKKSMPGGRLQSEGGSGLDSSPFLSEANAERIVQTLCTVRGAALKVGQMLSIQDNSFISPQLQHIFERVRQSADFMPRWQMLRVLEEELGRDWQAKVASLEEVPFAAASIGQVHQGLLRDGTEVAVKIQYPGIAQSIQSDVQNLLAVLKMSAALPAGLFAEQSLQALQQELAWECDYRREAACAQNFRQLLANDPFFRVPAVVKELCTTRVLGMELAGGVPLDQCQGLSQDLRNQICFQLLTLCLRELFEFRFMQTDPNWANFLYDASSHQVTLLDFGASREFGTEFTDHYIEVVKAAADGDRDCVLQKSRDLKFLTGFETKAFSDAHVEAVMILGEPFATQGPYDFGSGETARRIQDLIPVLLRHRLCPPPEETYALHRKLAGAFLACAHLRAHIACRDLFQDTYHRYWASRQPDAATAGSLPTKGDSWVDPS
Sequence of Fibroblast growth factor receptor 2 (Homo sapiens) (P21802 22-821 limits assumed): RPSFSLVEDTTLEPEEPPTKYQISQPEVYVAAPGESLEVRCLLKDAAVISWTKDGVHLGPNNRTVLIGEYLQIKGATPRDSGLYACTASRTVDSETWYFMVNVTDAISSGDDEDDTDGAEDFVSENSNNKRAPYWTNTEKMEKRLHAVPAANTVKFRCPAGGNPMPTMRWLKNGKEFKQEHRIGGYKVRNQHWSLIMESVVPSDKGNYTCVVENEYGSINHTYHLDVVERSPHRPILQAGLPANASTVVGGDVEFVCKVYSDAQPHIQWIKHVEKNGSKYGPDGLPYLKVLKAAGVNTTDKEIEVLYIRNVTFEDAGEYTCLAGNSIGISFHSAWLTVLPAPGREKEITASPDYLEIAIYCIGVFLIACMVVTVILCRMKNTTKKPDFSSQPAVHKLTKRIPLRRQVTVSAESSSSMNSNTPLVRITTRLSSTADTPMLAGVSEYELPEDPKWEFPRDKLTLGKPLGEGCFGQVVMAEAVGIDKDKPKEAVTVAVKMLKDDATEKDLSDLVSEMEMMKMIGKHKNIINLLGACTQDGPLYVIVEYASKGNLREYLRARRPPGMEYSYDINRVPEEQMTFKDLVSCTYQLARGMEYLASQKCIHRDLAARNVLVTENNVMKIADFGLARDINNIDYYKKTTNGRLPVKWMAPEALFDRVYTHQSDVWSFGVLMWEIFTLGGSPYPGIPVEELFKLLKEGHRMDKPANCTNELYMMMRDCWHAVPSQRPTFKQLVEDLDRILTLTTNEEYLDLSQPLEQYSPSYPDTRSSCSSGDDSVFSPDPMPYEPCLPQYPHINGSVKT
Sequence of Serine/threonine-protein kinase PAK 5 (Homo sapiens) (Q9P286 whole entry, looked up): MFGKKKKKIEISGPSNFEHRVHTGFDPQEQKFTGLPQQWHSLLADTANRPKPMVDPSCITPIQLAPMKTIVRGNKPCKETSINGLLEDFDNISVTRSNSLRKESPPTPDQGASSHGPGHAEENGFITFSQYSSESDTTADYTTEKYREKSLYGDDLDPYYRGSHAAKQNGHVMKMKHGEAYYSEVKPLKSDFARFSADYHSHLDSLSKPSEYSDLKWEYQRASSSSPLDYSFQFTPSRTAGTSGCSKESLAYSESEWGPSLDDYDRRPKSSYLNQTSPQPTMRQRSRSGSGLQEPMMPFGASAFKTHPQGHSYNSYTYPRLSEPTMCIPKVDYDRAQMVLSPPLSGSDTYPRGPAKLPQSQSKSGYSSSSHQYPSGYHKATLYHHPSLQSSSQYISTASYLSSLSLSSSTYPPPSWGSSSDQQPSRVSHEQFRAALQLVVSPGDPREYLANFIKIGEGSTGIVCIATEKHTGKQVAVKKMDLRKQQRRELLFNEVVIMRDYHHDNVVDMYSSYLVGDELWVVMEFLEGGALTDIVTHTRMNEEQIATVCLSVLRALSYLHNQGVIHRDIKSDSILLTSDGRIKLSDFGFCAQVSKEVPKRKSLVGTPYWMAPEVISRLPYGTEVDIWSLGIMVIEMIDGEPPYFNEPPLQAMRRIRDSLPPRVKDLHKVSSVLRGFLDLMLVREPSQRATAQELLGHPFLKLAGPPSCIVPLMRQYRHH
Sequence of 5-hydroxytryptamine receptor 1E (Homo sapiens) (P28566 whole entry): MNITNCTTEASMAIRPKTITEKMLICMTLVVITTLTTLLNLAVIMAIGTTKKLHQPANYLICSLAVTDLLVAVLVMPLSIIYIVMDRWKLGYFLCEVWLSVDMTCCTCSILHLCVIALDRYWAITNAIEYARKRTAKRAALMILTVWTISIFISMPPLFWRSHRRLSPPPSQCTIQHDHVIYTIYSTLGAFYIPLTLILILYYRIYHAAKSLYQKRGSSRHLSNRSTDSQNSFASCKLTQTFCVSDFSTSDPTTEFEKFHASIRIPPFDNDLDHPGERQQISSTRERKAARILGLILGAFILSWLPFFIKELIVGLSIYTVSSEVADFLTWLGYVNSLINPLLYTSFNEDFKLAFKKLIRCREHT
Sequence of Serine/threonine-protein kinase PAK 3 (Homo sapiens) (O75914 whole entry, looked up): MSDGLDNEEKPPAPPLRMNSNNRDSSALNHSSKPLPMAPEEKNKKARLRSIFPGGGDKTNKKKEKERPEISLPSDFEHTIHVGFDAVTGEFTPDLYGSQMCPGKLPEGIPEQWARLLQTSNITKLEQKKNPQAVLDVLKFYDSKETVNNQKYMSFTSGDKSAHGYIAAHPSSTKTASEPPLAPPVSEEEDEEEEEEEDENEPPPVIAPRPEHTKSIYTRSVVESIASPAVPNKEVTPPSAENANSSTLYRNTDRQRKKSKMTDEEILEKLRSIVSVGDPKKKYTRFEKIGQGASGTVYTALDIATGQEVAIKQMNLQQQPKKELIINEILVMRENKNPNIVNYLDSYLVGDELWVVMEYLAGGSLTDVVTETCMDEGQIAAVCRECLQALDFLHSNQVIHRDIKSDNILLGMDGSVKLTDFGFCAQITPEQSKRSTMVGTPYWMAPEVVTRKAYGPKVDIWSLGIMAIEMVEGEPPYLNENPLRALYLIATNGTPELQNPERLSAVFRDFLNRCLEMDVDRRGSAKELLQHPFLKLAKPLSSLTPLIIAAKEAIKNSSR
Sequence of Tyrosine-protein kinase receptor TYRO3 (Homo sapiens) (Q06418 whole entry): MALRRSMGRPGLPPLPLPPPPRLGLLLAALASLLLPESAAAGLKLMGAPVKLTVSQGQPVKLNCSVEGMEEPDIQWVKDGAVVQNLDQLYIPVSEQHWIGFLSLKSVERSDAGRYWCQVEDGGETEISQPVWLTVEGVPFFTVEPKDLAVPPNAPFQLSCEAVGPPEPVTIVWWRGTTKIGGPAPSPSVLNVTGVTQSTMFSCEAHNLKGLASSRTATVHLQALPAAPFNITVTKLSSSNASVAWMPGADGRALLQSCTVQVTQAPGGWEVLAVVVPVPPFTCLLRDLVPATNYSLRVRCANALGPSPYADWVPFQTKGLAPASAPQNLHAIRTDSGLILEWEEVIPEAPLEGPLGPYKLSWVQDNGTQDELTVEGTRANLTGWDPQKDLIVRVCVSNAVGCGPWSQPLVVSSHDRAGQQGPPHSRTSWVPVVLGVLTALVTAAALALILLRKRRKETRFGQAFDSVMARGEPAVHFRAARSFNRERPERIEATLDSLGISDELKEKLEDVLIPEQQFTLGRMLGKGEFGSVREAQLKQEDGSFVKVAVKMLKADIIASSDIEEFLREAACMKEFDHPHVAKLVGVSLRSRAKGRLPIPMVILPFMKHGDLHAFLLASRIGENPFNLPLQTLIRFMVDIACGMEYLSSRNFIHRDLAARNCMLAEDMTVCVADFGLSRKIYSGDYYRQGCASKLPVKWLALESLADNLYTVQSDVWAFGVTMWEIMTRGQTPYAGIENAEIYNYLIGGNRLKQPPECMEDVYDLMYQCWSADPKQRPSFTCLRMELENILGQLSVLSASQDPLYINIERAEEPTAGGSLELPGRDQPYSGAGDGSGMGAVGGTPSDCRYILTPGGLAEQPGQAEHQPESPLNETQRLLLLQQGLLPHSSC
Sequence of Cyclin-dependent kinase 11A (Homo sapiens) (Q9UQ88 whole entry): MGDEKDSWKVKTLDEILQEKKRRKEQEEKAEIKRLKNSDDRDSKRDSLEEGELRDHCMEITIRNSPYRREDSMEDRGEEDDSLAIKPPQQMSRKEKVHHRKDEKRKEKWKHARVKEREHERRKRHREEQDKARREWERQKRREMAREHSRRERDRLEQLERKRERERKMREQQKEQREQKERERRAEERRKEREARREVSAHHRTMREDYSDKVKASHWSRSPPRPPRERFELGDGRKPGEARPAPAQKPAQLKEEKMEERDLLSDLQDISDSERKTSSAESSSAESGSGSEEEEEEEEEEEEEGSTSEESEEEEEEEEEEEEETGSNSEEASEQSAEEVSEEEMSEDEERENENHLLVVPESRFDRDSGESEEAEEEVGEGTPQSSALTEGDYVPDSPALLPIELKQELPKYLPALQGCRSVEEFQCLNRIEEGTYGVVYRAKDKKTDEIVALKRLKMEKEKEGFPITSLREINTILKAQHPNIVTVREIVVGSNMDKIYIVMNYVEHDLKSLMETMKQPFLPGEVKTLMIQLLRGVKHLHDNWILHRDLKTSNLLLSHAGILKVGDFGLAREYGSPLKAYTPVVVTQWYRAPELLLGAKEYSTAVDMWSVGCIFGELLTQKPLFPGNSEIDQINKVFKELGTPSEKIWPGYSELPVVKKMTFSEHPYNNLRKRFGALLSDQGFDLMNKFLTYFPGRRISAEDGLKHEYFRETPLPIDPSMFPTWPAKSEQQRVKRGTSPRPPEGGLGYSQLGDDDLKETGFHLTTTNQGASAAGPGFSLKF

CCOC(=O)c1cc2cc(-c3cc(C(=O)NCc4ccc(C(=O)O)cc4)nn3C)ccc2[nH]1 [BI 4394]
residual activity [1]: 91%
residual activity [2]: 100%
residual activity [3]: 96%
residual activity [4]: 97%
residual activity [5]: 90%
residual activity [6]: 94%
residual activity [7]: 76%
residual activity [8]: 77%
residual activity [9]: 100%
residual activity [10]: 89%
residual activity [11]: 100%
residual activity [12]: 100%
residual activity [13]: 95%
residual activity [14]: 77%
residual activity [15]: 74%
residual activity [16]: 100%
residual activity [17]: 86%
residual activity [18]: 80%
residual activity [19]: 98%
residual activity [20]: 91%
residual activity [21]: 97%
inhibition [22]: 6.37%
residual activity [23]: 100%
residual activity [24]: 90%
residual activity [25]: 93%
residual activity [26]: 96%
residual activity [27]: 82%
residual activity [28]: 100%
inhibition [29]: 16.4%
residual activity [30]: 100%
residual activity [31]: 75%
inhibition [32]: 34.8%
residual activity [33]: 100%
residual activity [34]: 93%
residual activity [35]: 100%
residual activity [36]: 97%
residual activity [37]: 100%
inhibition (D(1B) dopamine receptor): 59.6%
residual activity [38]: 100%
residual activity [39]: 95%
residual activity [40]: 77%
residual activity [41]: 95%
residual activity [42]: 99%
residual activity [43]: 76%
residual activity [44]: 99%

Cn1nc(C(=O)NCc2ccc(C(=O)O)cc2)cc1-c1ccc2[nH]ccc2c1 [BI 4395]
residual activity [1]: 74%
residual activity [2]: 100%
residual activity [3]: 100%
residual activity [4]: 93%
residual activity [5]: 91%
residual activity [6]: 75%
residual activity [7]: 93%
residual activity [8]: 77%
residual activity [9]: 31%
residual activity [10]: 87%
residual activity [11]: 85%
residual activity [12]: 100%
residual activity [13]: 62%
residual activity [14]: 82%
residual activity [15]: 100%
residual activity [16]: 92%
residual activity [17]: 88%
residual activity [18]: 68%
residual activity [19]: 100%
residual activity [20]: 100%
residual activity [21]: 100%
inhibition [22]: 10.3%
residual activity [23]: 96%
residual activity [24]: 58%
residual activity [25]: 78%
residual activity [26]: 88%
residual activity [27]: 63%
residual activity [28]: 84%
inhibition [29]: 6%
residual activity [30]: 100%
residual activity [31]: 95%
inhibition [32]: 23.5%
residual activity [33]: 86%
residual activity [34]: 85%
residual activity [35]: 100%
residual activity [36]: 43%
residual activity [37]: 100%
inhibition (D(1B) dopamine receptor): 73.9%
residual activity [38]: 100%
residual activity [39]: 63%
residual activity [40]: 98%
residual activity [41]: 80%
residual activity [42]: 91%
residual activity [43]: 100%
residual activity [44]: 92%
